This is an account of results in ChEMBL document CHEMBL4177647, “Conformational properties of ascydiacyclamide analogues with cyclic α-amino acids instead of oxazoline residues” (2017).

What all share (assay type): functional
The subject of experiment [1] is P388. In words: Cytotoxicity against mouse P388 cells after 72 hrs by MTT assay. The note with it: P388, 72 h, read-out: ED50 (the source's name).
The subject of experiment [2] is HL-60. Description: Cytotoxicity against human HL60 cells after 72 hrs by MTT assay. Particulars: HL-60, 72 h, read-out: ED50 (the source's name). (Tetrazolium assays rely on reduction of a dye to a coloured formazan, in cell work by metabolically active cells.)
The subject of experiment [3] is HL-60. Description: Potency index, ratio of ED50 for Ascidiacyclamide to ED50 test compound against human HL60 cells after 72 hrs by MTT assay.
Experiment [4] relates to P388. In words: Cytotoxicity against mouse P388 cells after 72 hrs by MTT assay relative to Ascidiacyclamide.

In brackets after ≈: the same amount, converted by molar mass.

On to `CC[C@H](C)[C@@H]1NC(=O)c2csc(n2)[C@@H](C(C)C)NC(=O)[C@@H]2CCCN2C(=O)[C@H]([C@@H](C)CC)NC(=O)c2csc(n2)[C@@H](C(C)C)NC(=O)[C@@H]2CCCN2C1=O`, for which the results for the EC50 in experiment [1] and in experiment [2] were 19.4 µg/mL (≈ 24.7 µM) and 10.4 µg/mL (≈ 13.2 µM), respectively. The “Ratio ED50” value in experiment [3] worked out at 3.
Consider `CC[C@H](C)[C@@H]1NC(=O)c2csc(n2)[C@@H](C(C)C)NC(=O)[C@@H]2CCN2C(=O)[C@H]([C@@H](C)CC)NC(=O)c2csc(n2)[C@@H](C(C)C)NC(=O)[C@@H]2CCN2C1=O`, for which the EC50 in experiment [1] and in experiment [2] was above 100 µg/mL each time.
As for `CC[C@H](C)[C@@H]1NC(=O)c2csc(n2)[C@@H](C(C)C)NC(=O)[C@@H]2C=CCN2C(=O)[C@H]([C@@H](C)CC)NC(=O)c2csc(n2)[C@@H](C(C)C)NC(=O)[C@@H]2C=CCN2C1=O`, the EC50 in experiment [1] and in experiment [2] was above 100 µg/mL each time.
In the case of `CC[C@H](C)[C@@H]1NC(=O)c2csc(n2)[C@@H](C(C)C)NC(=O)[C@@H]2CCCCN2C(=O)[C@H]([C@@H](C)CC)NC(=O)c2csc(n2)[C@@H](C(C)C)NC(=O)[C@@H]2CCCCN2C1=O`, the EC50 in experiment [1] turned out to be 15.8 µg/mL (≈ 19.4 µM); in experiment [2] it was 15 µg/mL (≈ 18.4 µM). In addition, in experiment [4], the Activity was 66%. For the same compound, the “Ratio ED50” value in experiment [3] was 2.
In the case of `CC[C@H](C)[C@@H]1NC(=O)c2csc(n2)[C@@H](C(C)C)NC(=O)[C@H]2N=C(O[C@@H]2C)[C@H]([C@@H](C)CC)NC(=O)c2csc(n2)[C@@H](C(C)C)NC(=O)[C@H]2N=C1O[C@@H]2C` [ASCIDIACYCLAMIDE], the EC50 in experiment [1] came to 10.5 µg/mL (≈ 13.9 µM).
